Test system: 379773-124-R-J2-PDC spheroid viability
Assay: Anticancer human tumor 379773-124-R-J2-PDC patient-derived endometrial carcinoma cell line growth inhibition [POLQ]
Details: spheroids with HUVEC and MSC; for IC50: curve of first compound; for viability, T/C: stronger effect = lower value
How it was run: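 Complex spheroid viability model combining PDC tumour cells with endothelial (HUVEC) and MSC stromal cells. Novobiocin, ART-558 or RP6685 were tested singly and in combination with standard and investigational anticancer drugs. Each was titrated in half-log steps from near clinical Cmax, or from 10 microM where Cmax was unknown.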

[1] = second compound 0.0316 µM, first compound 0.0316 µM
[2] = second compound 0.0316 µM, first compound 0.1 µM
[3] = second compound 0.0316 µM, first compound 0.316 µM
[4] = second compound 0.0316 µM, first compound 1 µM
[5] = second compound 0.0316 µM, first compound 3.16 µM
[6] = second compound 0.0316 µM, first compound 10 µM
[7] = second compound 0.1 µM, first compound 0.0316 µM
[8] = second compound 0.1 µM, first compound 0.1 µM
[9] = second compound 0.1 µM, first compound 0.316 µM
[10] = second compound 0.1 µM, first compound 1 µM
[11] = second compound 0.1 µM, first compound 3.16 µM
[12] = second compound 0.1 µM, first compound 10 µM
[13] = second compound 0.316 µM, first compound 0.0316 µM
[14] = second compound 0.316 µM, first compound 0.1 µM
[15] = second compound 0.316 µM, first compound 0.316 µM
[16] = second compound 0.316 µM, first compound 1 µM
[17] = second compound 0.316 µM, first compound 3.16 µM
[18] = second compound 0.316 µM, first compound 10 µM
[19] = second compound 1 µM, first compound 0.0316 µM
[20] = second compound 1 µM, first compound 0.1 µM
[21] = second compound 1 µM, first compound 0.316 µM
[22] = second compound 1 µM, first compound 1 µM
[23] = second compound 1 µM, first compound 3.16 µM
[24] = second compound 1 µM, first compound 10 µM
[25] = second compound 3.16 µM, first compound 0.0316 µM
[26] = second compound 3.16 µM, first compound 0.1 µM
[27] = second compound 3.16 µM, first compound 0.316 µM
[28] = second compound 3.16 µM, first compound 1 µM
[29] = second compound 3.16 µM, first compound 3.16 µM
[30] = second compound 3.16 µM, first compound 10 µM
[31] = second compound 10 µM, first compound 0.0316 µM
[32] = second compound 10 µM, first compound 0.1 µM
[33] = second compound 10 µM, first compound 0.316 µM
[34] = second compound 10 µM, first compound 1 µM
[35] = second compound 10 µM, first compound 3.16 µM
[36] = second compound 10 µM, first compound 10 µM
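Also: spheroids exposed to drugs for seven days before readout.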
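For viability, T/C in this document: percent viability relative to DMSO vehicle control taken as 100%.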

CC1COCCN1c1cc(C2(O)CC3CCC(C2)O3)c2cnn(-c3ccn[nH]3)c2n1 (stereo not drawn) + Cc1cccc(N(C)C(=O)C2C(O)CCN2c2nc(C)cc(C(F)(F)F)c2C#N)c1
IC50 (second compound 0.0316 µM): 82.6 nM
IC50 (second compound 0.1 µM): 92.6 nM
IC50 (second compound 0.316 µM): 82.7 nM
IC50 (second compound 1 µM): 96.1 nM
IC50 (second compound 3.16 µM): 68.3 nM
IC50 (second compound 10 µM): 68.1 nM
viability, T/C [1]: 75.6%
viability, T/C [2]: 45.4%
viability, T/C [3]: 14.1%
viability, T/C [4]: 12.7%
viability, T/C [5]: 7.12%
viability, T/C [6]: 2.45%
viability, T/C [7]: 82.8%
viability, T/C [8]: 48.1%
viability, T/C [9]: 15.9%
viability, T/C [10]: 11.5%
viability, T/C [11]: 7.15%
viability, T/C [12]: 2.96%
viability, T/C [13]: 84.9%
viability, T/C [14]: 43.2%
viability, T/C [15]: 11.8%
viability, T/C [16]: 9.19%
viability, T/C [17]: 6.89%
viability, T/C [18]: 2.54%
viability, T/C [19]: 80.8%
viability, T/C [20]: 49%
viability, T/C [21]: 12.2%
viability, T/C [22]: 10.9%
viability, T/C [23]: 7%
viability, T/C [24]: 2.13%
viability, T/C [25]: 70.6%
viability, T/C [26]: 40.2%
viability, T/C [27]: 15.1%
viability, T/C [28]: 9.34%
viability, T/C [29]: 7.31%
viability, T/C [30]: 2.13%
viability, T/C [31]: 68.3%
viability, T/C [32]: 41.5%
viability, T/C [33]: 15.1%
viability, T/C [34]: 10.8%
viability, T/C [35]: 7.1%
viability, T/C [36]: 1.64%

CC(=O)O[C@H]1C(=O)[C@@]2(C)[C@H]([C@H](OC(=O)c3ccccc3)[C@]3(O)C[C@H](OC(=O)[C@H](O)[C@@H](NC(=O)c4ccccc4)c4ccccc4)C(C)=C1C3(C)C)[C@]1(OC(C)=O)CO[C@@H]1C[C@@H]2O + Nc1ccc(C#CCN(C(=O)Cc2ncc(C(F)(F)F)cc2C(F)(F)F)c2ccc(F)cc2)nn1
IC50 (second compound 0.0316 µM): < 9.49 nM
IC50 (second compound 0.1 µM): < 9.49 nM
IC50 (second compound 0.316 µM): < 9.49 nM
IC50 (second compound 1 µM): < 9.49 nM
IC50 (second compound 3.16 µM): < 9.49 nM
IC50 (second compound 10 µM): < 9.49 nM
viability, T/C (second compound 0.0316 µM, first compound 0.00949 µM): 22.9%
viability, T/C (second compound 0.0316 µM, first compound 0.03 µM): 8.34%
viability, T/C (second compound 0.0316 µM, first compound 0.0949 µM): 8.59%
viability, T/C (second compound 0.0316 µM, first compound 0.3 µM): 12%
viability, T/C (second compound 0.0316 µM, first compound 0.949 µM): 7.39%
viability, T/C (second compound 0.0316 µM, first compound 3 µM): 10.1%
viability, T/C (second compound 0.1 µM, first compound 0.00949 µM): 19%
viability, T/C (second compound 0.1 µM, first compound 0.03 µM): 11.5%
viability, T/C (second compound 0.1 µM, first compound 0.0949 µM): 8.46%
viability, T/C (second compound 0.1 µM, first compound 0.3 µM): 9.83%
viability, T/C (second compound 0.1 µM, first compound 0.949 µM): 9.69%
viability, T/C (second compound 0.1 µM, first compound 3 µM): 8.71%
viability, T/C (second compound 0.316 µM, first compound 0.00949 µM): 23.7%
viability, T/C (second compound 0.316 µM, first compound 0.03 µM): 9.89%
viability, T/C (second compound 0.316 µM, first compound 0.0949 µM): 10.2%
viability, T/C (second compound 0.316 µM, first compound 0.3 µM): 12.1%
viability, T/C (second compound 0.316 µM, first compound 0.949 µM): 10.1%
viability, T/C (second compound 0.316 µM, first compound 3 µM): 9.75%
viability, T/C (second compound 1 µM, first compound 0.00949 µM): 28.3%
viability, T/C (second compound 1 µM, first compound 0.03 µM): 10.3%
viability, T/C (second compound 1 µM, first compound 0.0949 µM): 10.1%
viability, T/C (second compound 1 µM, first compound 0.3 µM): 9.22%
viability, T/C (second compound 1 µM, first compound 0.949 µM): 10.3%
viability, T/C (second compound 1 µM, first compound 3 µM): 8.87%
viability, T/C (second compound 3.16 µM, first compound 0.00949 µM): 23.4%
viability, T/C (second compound 3.16 µM, first compound 0.03 µM): 9.86%
viability, T/C (second compound 3.16 µM, first compound 0.0949 µM): 9.86%
viability, T/C (second compound 3.16 µM, first compound 0.3 µM): 10.8%
viability, T/C (second compound 3.16 µM, first compound 0.949 µM): 11%
viability, T/C (second compound 3.16 µM, first compound 3 µM): 9.15%
viability, T/C (second compound 10 µM, first compound 0.00949 µM): 25.1%
viability, T/C (second compound 10 µM, first compound 0.03 µM): 10.9%
viability, T/C (second compound 10 µM, first compound 0.0949 µM): 9.07%
viability, T/C (second compound 10 µM, first compound 0.3 µM): 10.1%
viability, T/C (second compound 10 µM, first compound 0.949 µM): 8.38%
viability, T/C (second compound 10 µM, first compound 3 µM): 8.52%

COc1cc(C2c3cc4c(cc3C(OC3OC5COC(C)OC5C(O)C3O)C3COC(=O)C23)OCO4)cc(OC)c1O (stereo not drawn) + Nc1ccc(C#CCN(C(=O)Cc2ncc(C(F)(F)F)cc2C(F)(F)F)c2ccc(F)cc2)nn1
IC50 (second compound 0.0316 µM): 1500 nM
IC50 (second compound 0.1 µM): 1570 nM
IC50 (second compound 0.316 µM): 1490 nM
IC50 (second compound 1 µM): 1240 nM
IC50 (second compound 3.16 µM): 1410 nM
IC50 (second compound 10 µM): 1240 nM
viability, T/C [1]: 95.4%
viability, T/C [2]: 116%
viability, T/C [3]: 81.9%
viability, T/C [4]: 70.4%
viability, T/C [5]: 17%
viability, T/C [6]: 15.5%
viability, T/C [7]: 98.8%
viability, T/C [8]: 86%
viability, T/C [9]: 90%
viability, T/C [10]: 70.2%
viability, T/C [11]: 18.6%
viability, T/C [12]: 14.1%
viability, T/C [13]: 92.5%
viability, T/C [14]: 116%
viability, T/C [15]: 97%
viability, T/C [16]: 67.4%
viability, T/C [17]: 15.9%
viability, T/C [18]: 16.8%
viability, T/C [19]: 99.1%
viability, T/C [20]: 96.2%
viability, T/C [21]: 78.4%
viability, T/C [22]: 62.2%
viability, T/C [23]: 17.3%
viability, T/C [24]: 13.8%
viability, T/C [25]: 94.1%
viability, T/C [26]: 96.1%
viability, T/C [27]: 81.7%
viability, T/C [28]: 65.1%
viability, T/C [29]: 18.2%
viability, T/C [30]: 13.6%
viability, T/C [31]: 98%
viability, T/C [32]: 92.7%
viability, T/C [33]: 98%
viability, T/C [34]: 57.6%
viability, T/C [35]: 16.9%
viability, T/C [36]: 16.3%

COc1cccc2c1C(=O)c1c(O)c3c(c(O)c1C2=O)CC(O)(C(=O)CO)CC3OC1CC(N)C(O)C(C)O1 (stereo not drawn) + Nc1ccc(C#CCN(C(=O)Cc2ncc(C(F)(F)F)cc2C(F)(F)F)c2ccc(F)cc2)nn1
IC50 (second compound 0.0316 µM): 78.3 nM
IC50 (second compound 0.1 µM): 75.9 nM
IC50 (second compound 0.316 µM): 71.9 nM
IC50 (second compound 1 µM): 65.5 nM
IC50 (second compound 3.16 µM): 73.4 nM
IC50 (second compound 10 µM): 55.4 nM
viability, T/C [1]: 84.7%
viability, T/C [2]: 41.7%
viability, T/C [3]: 11.1%
viability, T/C [4]: 12.6%
viability, T/C [5]: 1.86%
viability, T/C [6]: 0.23%
viability, T/C [7]: 87.7%
viability, T/C [8]: 37.4%
viability, T/C [9]: 15.2%
viability, T/C [10]: 11.9%
viability, T/C [11]: 2.13%
viability, T/C [12]: 0.18%
viability, T/C [13]: 90.3%
viability, T/C [14]: 33.3%
viability, T/C [15]: 11.8%
viability, T/C [16]: 10.2%
viability, T/C [17]: 1.88%
viability, T/C [18]: 0.18%
viability, T/C [19]: 89.8%
viability, T/C [20]: 26%
viability, T/C [21]: 9.42%
viability, T/C [22]: 10.8%
viability, T/C [23]: 1.71%
viability, T/C [24]: 0.23%
viability, T/C [25]: 85.1%
viability, T/C [26]: 37.7%
viability, T/C [27]: 11.3%
viability, T/C [28]: 10.1%
viability, T/C [29]: 3.23%
viability, T/C [30]: 1.06%
viability, T/C [31]: 71.2%
viability, T/C [32]: 26.8%
viability, T/C [33]: 10.9%
viability, T/C [34]: 9.24%
viability, T/C [35]: 1.29%
viability, T/C [36]: 0.25%

— PubChem BioAssay AID1963848 (Molecular Pharmacology Branch, DTP, NCI, 2024)
